As a reminder, the EC50 is the concentration that produces a half-maximal response. As a reminder, the Emax is the maximal effect, on the per cent scale that the assay sets. One may read the AUC(0-inf) as total exposure, with the tail of the curve extrapolated. What is called AUC(0-t) is exposure summed from dosing to a finite time, without extrapolation to infinity. The Tmax is the time from dosing to the highest level. As usually defined, the half-life is the time in which the quantity being followed falls by half. Broadly, the Cmax is the peak of the concentration-time curve.

Like-named read-outs stand apart in the source and are kept apart here.

Here are results for one compound from US12378268B2, “Heterocyclic THR-β receptor agonist compound and preparation method and use therefor” (Hepagene Therapeutics (HK) Limited, priority 2019, dated 2025).

One data set addresses T1, THR-β (Homo sapiens, UniProt P10828).
T1 construct: TRB LBD, GST purchased from Thermo Fisher; purchased Thermo Fisher PV4762
As to the kind of experiment: Test of the binding ability of the compound to TRβ (TRβ LBD/RXR, biotin-SRC2-2 co-activating peptide, 665/615 nm fluorescence ratio). Format: biochemical. The method, then:
1. Main experimental materials and instruments:
Biotin-SRC2-2 co-activating peptide purchased from Sangon Biotech (Shanghai) Co., Ltd.
TRB LBD, GST purchased from Thermo Fisher (product No. PV4762)
Europium-conjugated anti-glutathione antibody purchased from Cisbio (product No. 61GSTKLB)
Streptavidin-D2 purchased from Cisbio (product No. 610SADAB)
(§1) 4.2 The activity percentage was calculated as follows: […]
(§2) RatioCompound: Average of the relative ratios of the compound wells of the embodiments
(§3) RatioPositive: Average of the relative ratios of all positive control wells.
(§4) RatioBlank: Average of the relative ratios of all negative control wells.
(§5) EC50 was calculated by fitting the relationship between activity (%) and compound logarithmic concentration with Graphpad 5.0 by a nonlinear regression method.
(§6) Y=Bottom+ (top-bottom)/(1+10^((LogEC50−X)*slope))
(§7) X: Compound logarithmic concentration Y: Percentage activity

The target in the next data set is T2, THR-α (Homo sapiens, UniProt P10827).
T2 construct: TR-a LBD, GST purchased from Thermo Fisher; purchased Thermo Fisher PV4762
Kind of data set: Test of the binding ability of the compound to TRα (TRα LBD/RXRα, biotin-SRC2-2 co-activating peptide, 665/615 nm fluorescence ratio). Format: biochemical. The method, then:
as §1, §2, §3, §4, §5, §6, §7

The nature of data set [1]: Drug metabolism experiment on prodrug in SD rats: plasma pharmacokinetic parameters. The format is in vivo. Particulars: plasma. The method, then: (§8) Test 3: Drug metabolism experiment on prodrug in SD rats
(§9) In the experiment, […] of 12 male SD rats having similar body weights were selected and orally administered compound 9, compound 10, and the control drug VK2809 (the prodrug of MB07444, structured as shown below) at a dose of 3 mg/kg at a single time, respectively, and blood and liver samples were collected at different time points.
(§10) Solutions of compound 9/compound 10 and VK2809 with a final concentration of 0.6 mg/mL were respectively prepared, and the ratio between the solvents used for the preparation was PEG400: pure water =50:50 (v/v).
(§11) No randomization was performed. The weights of the animals were measured before administration, and healthy animals with similar body weights were selected for inclusion in the experiment. The oral dose was 3 mg/kg.
(§12) At least 0.2 mL of blood was collected from the tail vein or jugular vein, and heparin sodium was used as the anticoagulant.
15 min, 30 min, 1 h, 2 h, 4 h, 6 h, 8 h, 24 h after administration.
(§13) After being collected, a blood sample was placed in a marked ice-water bath centrifuge tube, plasma was quickly separated by centrifugation under centrifugation conditions: 3500 rpm, 10 minutes, and 4° C., and the plasma was stored under −40° C. for testing.
(§14) Q TRAP6500 mass spectrometer with ESI source was used to perform negative ion MRM scanning. An LC-MS/MS analysis method was used to detect the contents of compound 9, compound 10 and its active metabolite 1, VK2809 and its active metabolite MB07444 in the plasma and liver. The metabolic kinetics data analysis software WinNonlin 7.0 was used to calculate the concentration data of plasma, and the non-compartmental model (NCA) method was used to calculate the pharmacokinetic parameters.

Data set [2] can be described thus: Drug metabolism experiment on prodrug in SD rats: concentration in liver compared with blood. Format: in vivo. To be noted: male, Sprague-Dawley, rat, po, 3 mg/kg, SD rats, oral 3 mg/kg VK-2809. As to the method: as §8, §9, §10, §11, §12, §13
After the liver sample was collected, its surface was washed with normal saline, dried with medical gauze, placed in a labeled small ziplock bag, and stored under −40° C. for testing.
as §14
The parameters of concentration in the livers of the SD rats and a comparison with the concentration in plasma are shown in Table 3 below: […]

Setting [3] is: activity relative to positive control.
Where [4] appears, read: male, Sprague-Dawley (SD), rat, po, 3 mg/kg, oral 3 mg/kg VK2809.

T1 sequence (P10828 217-461 limits assumed, other chains not shown): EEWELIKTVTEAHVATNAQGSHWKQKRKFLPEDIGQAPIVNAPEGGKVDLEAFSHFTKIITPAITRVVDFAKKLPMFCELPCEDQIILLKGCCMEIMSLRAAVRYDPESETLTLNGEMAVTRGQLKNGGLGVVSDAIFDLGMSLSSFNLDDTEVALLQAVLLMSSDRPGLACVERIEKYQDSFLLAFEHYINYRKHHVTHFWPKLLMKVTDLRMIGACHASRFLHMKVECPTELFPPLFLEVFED
T1 sequence (P28702 whole entry partner, other chains not shown, the tested form may be a part): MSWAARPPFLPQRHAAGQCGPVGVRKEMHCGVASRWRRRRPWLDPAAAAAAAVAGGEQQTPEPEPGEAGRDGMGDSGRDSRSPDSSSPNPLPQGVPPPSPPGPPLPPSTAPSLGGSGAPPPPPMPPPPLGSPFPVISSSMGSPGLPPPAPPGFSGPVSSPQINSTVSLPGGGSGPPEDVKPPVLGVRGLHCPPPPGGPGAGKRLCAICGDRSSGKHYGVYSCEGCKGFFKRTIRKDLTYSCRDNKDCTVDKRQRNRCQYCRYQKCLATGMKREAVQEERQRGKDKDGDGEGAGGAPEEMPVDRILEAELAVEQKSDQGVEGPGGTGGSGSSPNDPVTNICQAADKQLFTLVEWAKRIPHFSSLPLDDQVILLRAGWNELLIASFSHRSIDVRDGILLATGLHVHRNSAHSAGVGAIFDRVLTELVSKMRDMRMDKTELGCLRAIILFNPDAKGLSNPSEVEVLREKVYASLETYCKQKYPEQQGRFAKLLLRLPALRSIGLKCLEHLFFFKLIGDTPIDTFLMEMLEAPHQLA
T2 sequence (P10827 163-410 isoform P10827-2 limits assumed, other chains not shown): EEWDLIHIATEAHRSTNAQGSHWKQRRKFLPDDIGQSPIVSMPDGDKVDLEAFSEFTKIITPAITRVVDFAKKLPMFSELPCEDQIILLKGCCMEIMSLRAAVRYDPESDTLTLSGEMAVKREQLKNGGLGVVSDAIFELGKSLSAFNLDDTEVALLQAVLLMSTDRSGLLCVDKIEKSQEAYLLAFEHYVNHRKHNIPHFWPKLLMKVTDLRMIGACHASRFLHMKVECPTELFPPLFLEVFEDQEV
T2 sequence (P19793 whole entry partner, other chains not shown, the tested form may be a part): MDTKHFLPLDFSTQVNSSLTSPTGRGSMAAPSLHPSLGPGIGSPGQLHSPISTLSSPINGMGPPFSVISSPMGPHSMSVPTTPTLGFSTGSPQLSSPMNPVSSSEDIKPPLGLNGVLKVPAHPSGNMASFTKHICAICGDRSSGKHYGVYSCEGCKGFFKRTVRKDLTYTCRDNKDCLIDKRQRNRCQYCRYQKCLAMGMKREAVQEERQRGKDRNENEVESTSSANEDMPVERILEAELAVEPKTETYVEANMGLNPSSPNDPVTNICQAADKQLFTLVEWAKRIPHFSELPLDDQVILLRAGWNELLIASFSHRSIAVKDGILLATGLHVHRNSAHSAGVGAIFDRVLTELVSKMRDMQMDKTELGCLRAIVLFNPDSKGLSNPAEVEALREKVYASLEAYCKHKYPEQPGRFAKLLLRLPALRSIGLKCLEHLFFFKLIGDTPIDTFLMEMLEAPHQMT

For `Cc1cc(OCP(=O)(O)O)cc(C)c1Cc1ccc(O)c(C(C)C)c1` [MB07444, reference compound], the EC50 on THR-β turned out to be 33 nM; at THR-α, 51 nM. Besides, the Emax at THR-β (setting [3]) and at THR-α (setting [3]) was 113% throughout. For the same compound, the “α/β selectivity (multiple)” value on THR-β (calculated after being standardized with T3) is 2.9 multiple. Besides, the AUC(0-inf) in data set [1] (setting [4]) turned out to be 448 ng·h/mL. The AUC(0-t) in data set [1] (setting [4]) came to 420 ng·h/mL. Besides, the time to peak (Tmax) in data set [1] (setting [4]) was 7.33 h. In addition, in data set [1] (setting [4]), the half-life was 317 min. Further, the Cmax in data set [1] (male, Sprague-Dawley (SD), rat, po, 3 mg/kg, oral 3 mg/kg VK2809, read-out: Cmax) worked out at 38.8 ng/mL. Moreover, the Kel in data set [1] (oral 3 mg/kg VK2809) is 0.131 h⁻¹. Further, the concentration at 1 h was found to be 214 ng/g in data set [2] (liver, 1 h, read-out: Ct Liver) and 5.9 ng/g in data set [2] (plasma, 1 h, read-out: Ct Blood). Besides, the concentration at 4 h worked out at 952 ng/g in data set [2] (liver, 4 h, read-out: Ct Liver) and 16.9 ng/g in data set [2] (plasma, 4 h, read-out: Ct Blood). Further, the concentration at 8 h was found to be 542 ng/g in data set [2] (liver, 8 h, read-out: Ct Liver) and 29.6 ng/g in data set [2] (plasma, 8 h, read-out: Ct Blood). For the same compound, the concentration at 24 h turned out to be 37 ng/g in data set [2] (liver, 24 h, read-out: Ct Liver) and 3.6 ng/g in data set [2] (plasma, 24 h, read-out: Ct Blood). Also, in data set [2] (liver/plasma, 1 h, read-out: Liver-to-blood ratio), the Kp at 1 h amounted to 15.9. Also, the Kp at 4 h in data set [2] (liver/plasma, 4 h, read-out: Liver-to-blood ratio) stood at 14. The Kp at 8 h in data set [2] (liver/plasma, 8 h, read-out: Liver-to-blood ratio) was 13.6. Further, the Kp at 24 h in data set [2] (liver/plasma, 24 h, read-out: Liver-to-blood ratio) is 9.9.
